# Data reported in patent US20190224202A1, “STABLE LIQUID FORMULATIONS OF PEMETREXED” (LEIUTIS PHARMACEUTICALS PVT. LTD., priority 2015, published 2019).
# Tests used:
# [1] = Solubility study of Pemetrexed diacid in various amino acids in water; type: physicochemical; conditions: 25° C.
# Description: Solubility studies of Pemetrexed were performed with various amino acids alone and in combination with other excipients in water at 25° C. to check the solubility.
# [2] = Solubility of Pemetrexed diacid in water (statement); type: physicochemical
compound,measurement,setting,value
"Nc1nc2[nH]cc(CCc3ccc(C(=O)N[C@@H](CCC(=O)O)C(=O)O)cc3)c2c(=O)[nH]1 [Pemetrexed diacid, N-{4-[2-(2-Amino-4-oxo-4,7-dihydro-1H-pyrrolo[2,3-d]pyrimidin-5-yl)ethyl]benzoyl}-L-glutamic acid]",Description (solubility study),"[1]; Pemetrexed diacid 50 mg, Arginine 116 mg, Water 1 ml",Clear
same,Description (solubility study),"[1]; Pemetrexed diacid 50 mg, Arginine 133 mg, Water 1 ml",Clear
same,Description (solubility study),"[1]; Pemetrexed diacid 50 mg, Arginine 166 mg, Water 1 ml",Clear
same,Description (solubility study),"[1]; Pemetrexed diacid 100 mg, Histidine 100 mg, Glycine 50 mg, Ammonium acetate 100 mg, Sucrose 50 mg, Water 2.5 ml",Clear
same,Description (solubility study),"[1]; Pemetrexed diacid 100 mg, Histidine 100 mg, Glycine 50 mg, Ammonium acetate 100 mg, Water 2.5 ml",Clear
same,Description (solubility study),"[1]; Pemetrexed diacid 100 mg, Histidine 100 mg, Glycine 100 mg, Ammonium acetate 100 mg, Sucrose 50 mg, Water 2.5 ml",Clear
same,Description (solubility study),"[1]; Pemetrexed diacid 100 mg, Histidine 100 mg, Glycine 100 mg, Ammonium acetate 100 mg, Water 2.5 ml",Clear
same,Description (solubility study),"[1]; Pemetrexed diacid 100 mg, Histidine 100 mg, Glycine 100 mg, Sucrose 50 mg, Water 2.5 ml",Clear
same,Description (solubility study),"[1]; Pemetrexed diacid 100 mg, Histidine 100 mg, Glycine 100 mg, Water 2.5 ml",Clear
same,Description (solubility study),"[1]; Pemetrexed diacid 100 mg, Histidine 100 mg, Glycine 200 mg, Ammonium acetate 100 mg, Sucrose 50 mg, Water 2.5 ml",Clear
same,Description (solubility study),"[1]; Pemetrexed diacid 100 mg, Histidine 100 mg, Glycine 200 mg, Ammonium acetate 100 mg, Water 2.5 ml",Clear
same,Solubility in water,[2],practically insoluble
